Test [1] concerns A14(2AP) Tte riboswitch (RNA, riboswitch, 2-aminopurine at 14) CUGGGUCGCAGUAACCCCAGUUAACAAAACAAG
In words: ITC. Conditions: 100 mM NaCl, 4 mM MgCl2; 50 mM Na-HEPES pH 7.0, 25 °C.

In test [2] the test system is A13(2AP) Tte riboswitch (RNA, riboswitch, 2-aminopurine at 13) CUGGGUCGCAGUAACCCCAGUUAACAAAACAAG
Briefly: ITC. As to conditions: 100 mM NaCl, 4 mM MgCl2; 50 mM Na-HEPES pH 7.0, 25 °C.

Test [3] shares this test system. Briefly: 2-aminopurine fluorescence titration, one-site fit. Conditions: 100 mM NaCl, 2 mM MgCl2; 50 mM Na-HEPES pH 7.0; 100 nM RNA.
In test [4] the test system is Wildtype Tte preQ1-I riboswitch 33-mer (RNA, riboswitch) CUGGGUCGCAGUAACCCCAGUUAACAAAACAAG
Briefly: ITC. As to conditions: 100 mM NaCl, 4 mM MgCl2; 50 mM Na-HEPES pH 7.0, 25 °C.

The subject of test [5] is A10(2AP) Tte riboswitch (RNA, riboswitch, 2-aminopurine at 10) CUGGGUCGCAGUAACCCCAGUUAACAAAACAAG
Briefly: ITC. Conditions: 100 mM NaCl, 4 mM MgCl2; 50 mM Na-HEPES pH 7.0, 25 °C.

Test [6] relates to A32(2AP) Tte riboswitch (RNA, riboswitch, 2-aminopurine at 32) CUGGGUCGCAGUAACCCCAGUUAACAAAACAAG
Briefly: 2-aminopurine fluorescence titration, one-site fit. Conditions: 100 mM NaCl, 2 mM MgCl2; 50 mM Na-HEPES pH 7.0; 100 nM RNA.

Test [7] has as its system Wildtype Tte riboswitch, biotinylated (SPR) (RNA, riboswitch) CUGGGUCGCAGUAACCCCAGUUAACAAAACAAG
In words: SPR, 1:1 kinetic fit. As to conditions: 100 mM NaCl, 3 mM MgCl2; 10 mM Na-HEPES pH 7.4; immobilised RNA. (SPR reads the build-up and loss of mass on a sensor chip optically.)

Test [8] has as its system A14(2AP) Tte riboswitch (RNA, riboswitch, 2-aminopurine at 14) CUGGGUCGCAGUAACCCCAGUUAACAAAACAAG
In words: 2-aminopurine fluorescence titration, one-site fit. As to conditions: 100 mM NaCl, 2 mM MgCl2; 50 mM Na-HEPES pH 7.0; 100 nM RNA.

Test [9] concerns A32(2AP) Tte riboswitch (RNA, riboswitch, 2-aminopurine at 32) CUGGGUCGCAGUAACCCCAGUUAACAAAACAAG
Briefly: ITC. Conditions: 100 mM NaCl, 4 mM MgCl2; 50 mM Na-HEPES pH 7.0, 25 °C.

Test [10] relates to A10(2AP) Tte riboswitch (RNA, riboswitch, 2-aminopurine at 10) CUGGGUCGCAGUAACCCCAGUUAACAAAACAAG
In words: 2-aminopurine fluorescence titration, one-site fit. Conditions: 100 mM NaCl, 2 mM MgCl2; 50 mM Na-HEPES pH 7.0; 100 nM RNA.

For the compound `NCc1c[nH]c2nc(N)[nH]c(=O)c12`, the dissociation constant (KD) – broadly, the free concentration of one partner at which half of the binding sites on the other are occupied at equilibrium, for simple one-to-one binding – in test [1] is reported as 19.3 ± 0.8 nM; in [2], 21.6 ± 1.1 nM; in [4], 8.1 ± 0.9 nM; in [5] it was 12.6 ± 2.0 nM; in test [7] it was 1.84 ± 0.08 × 10^-9 M; in test [9], 10.5 ± 2.4 nM. The apparent KD (in general, the concentration giving half-maximal binding under the conditions of the assay) in test [3] is 25.7 ± 2.4 nM; in test [6], 12.3 ± 1.4 nM; in test [8], 34.2 ± 1.6 nM; in [10] it was 13.9 ± 0.7 nM.

Source of the values: publication PMC7641330 (2020).
